We go through 6 compounds from article PMC4904373, “Azole Antifungal Sensitivity of Sterol 14α-Demethylase (CYP51) and CYP5218 from Malassezia globosa” (Scientific Reports, 2016).

≈ marks a conversion by molar mass, not a printed value. Where “and” joins values, the source holds several entries; their conditions need not be identical. Equal values may be shown once. Read-outs that look alike come from different tables or passages of the source.

Series [1] deals with M. globosa.
Series [2] addresses T1, M. globosa CYP51 (Malassezia globosa, UniProt A8Q3I7, A7V/E4L/G6A/I5L/L2A/Q3L/W8F). Briefly: biochemical. As to the method:
Sterol metabolites were recovered by extraction with ethyl acetate followed by derivatization with 0.1 ml N,O-bis(trimethylsilyl)trifluoroacetamide (BSTFA) : trimethylchlorosilane (TMCS) (99:1) and 0.3 ml anhydrous pyridine (2 h at 80 °C) prior to analysis by gas chromatography mass spectrometry (GC/MS)[53].

In another series the test system is M. globosa ATCC MYA-4612. Briefly: M. globosa MIC100 determination. It is filed as cell-based, Malassezia globosa. The conditions noted are these: for MIC: Malassezia globosa, 168 h, read-out: MIC100. How it is done: M. globosa ATCC MYA-4612 was grown for 7 days at 30 °C in modified Dixon medium (3.6% malt extract, 2% desiccated ox-bile, 1% Tween 40, 0.6% peptone, 0.2% glycerol, 0.2% oleic acid, pH adjusted to 6 with HCl) until a culture density of 1.5 × 10^5 cells ml^−1 was obtained. Cells from 3 ml of stock culture were harvested, suspended in 1 ml of saline and used to inoculate 30 ml of fresh modified Dixon medium for use as M. globosa inoculums in MIC determinations. Stock azole concentrations of 1600, 800, 400, 200, 100, 50, 25, 12.5, 6.25, 3.125 and 0 μg ml^−1 were prepared in DMSO. These were diluted ten-fold with fresh modified Dixon media and 20 μl of the diluted azole solutions were then mixed with 180 μl of M. globosa inoculum in microtiter plate wells to yield final azole concentrations of 16, 8, 4, 2, 1, 0.5, 0.25, 0.125, 0.0625, 0.03125 and 0 μg ml^−1. The microtiter plates were incubated at 30 °C for 7 days and then read. Each azole MIC100 determination was performed in triplicate.

Series [3] concerns M. globosa. The conditions noted are these: cited from earlier work.
For series [4], the target named is T2, M. globosa CYP5218 (Malassezia globosa, UniProt A8QCD3, A3L/A5L/F6A/I7V/S4L/S8F). Briefly: biochemical. It is filed as binding. The conditions noted are these: for azole binding to CYP5218 (binding spectra): 2 μM CYP5218, result in words. As to the method: (§1) Reduced carbon monoxide difference spectroscopy[46][47] and absolute spectra between 700 and 300 nm were used to determine cytochrome P450 concentrations. Substrate and azole binding studies were performed[31][48] using 2.5 mM stock sterol solutions in 40% (wt/vol) (2-hydroxypropyl)-β-cyclodextrin (HPCD), 4 mg ml^−1 solutions of fatty acids in dimethylformamide (DMF), and stock 0.05, 0.1 and 0.2 mg ml^−1 solutions of azole antifungal agents in dimethylsulfoxide (DMSO). Sterols were titrated against 5 μM CYP51, fatty acids were titrated against 4 μM CYP5218 and azole antifungal agents were titrated against 2 μM CYP51 and CYP5218. The absorbance difference spectrum between 500 and 350 nm was determined after each incremental addition of ligand with saturation curves constructed from ΔApeak-trough against ligand concentration. The dissociation constants (Kd) for sterols and fatty acids were determined by non-linear regression (Levenberg-Marquardt algorithm) using the Michaelis-Menten equation. The dissociation constants of the enzyme-azole complex were determined by non-linear regression (Levenberg-Marquardt algorithm) using a rearrangement of the Morrison equation for tight ligand binding. ProFit 6.1.12 (QuantumSoft, Zurich, Switzerland) was used for curve-fitting data. All ligand-binding studies were performed at 22 ± 2 °C and in triplicate. All spectral determinations were made using a Hitachi U-3310 UV/VIS spectrophotometer (San Jose, California).

For series [5], the target named is T1, M. globosa CYP51. Briefly: biochemical. It is filed as binding. As to the method:
as §1

The target in series [6] is T2, M. globosa CYP5218. Briefly: biochemical. The conditions noted are these: 4 μM CYP5218, type I spectra, mean of three replicates with SD. It is filed as binding. As to the method: as §1, with “The dissociation constants (Kd) for sterols and fatty acids were determined by non-linear regression (Levenberg-Marquardt algorithm) using the Michaelis-Menten equation.” left out

For series [7], the target named is T2, M. globosa CYP5218. The conditions noted are these: 100 μM fatty acid, 1 hour to overnight (~16 h), three different cytochrome P450 reductase redox partners.
Method: The CYP5218 fatty acid reconstitution assay system used was based on that previously described by Guengerich[54] and contained 200 nM of CYP5218, 500 nM of cytochrome P450 reductase (A. fumigatus CPR1[52]) or H. sapiens CPR[55] or C. albicans CPR[56], 50 μM DLPC, 100 μM fatty acid (lauric acid, myristic acid, palmitic acid, palmitoleic acid, oleic acid and linoleic acid), 4 mM glucose-6-phosphate, 3 U/ml yeast glucose-6-phosphate dehydrogenase in a final volume of 500 μl with 0.1 M potassium phosphate (pH 7.4). Assay mixtures were incubated at 37 °C for 5 min prior to initiation with 4 mM β-NADPHNa4 and then incubated for a further 60 min or overnight (~16 h) at 37 °C. Fatty acid metabolites were recovered by extraction with dichloromethane and dried in a vacuum centrifuge. Samples were derivatized with 200 μl anhydrous pyridine and 250 μl BSTFA:TMCS (99:1) (30 min at 80 °C) and extracted with 500 μl of hexane, prior to analysis by GC/MS (Thermo GC Trace 1300 and ISQ MS). GC analysis was performed with a 5% phenyl methylpolysiloxane column (DB5) (Agilent Technologies). The oven programme was as follows: initial: 70 °C, with 3 min hold; ramp: 10 °C min^−1 to 180 °C (held for 2 min), 10 °C min^−1 to 250 °C (held for 2 min) and 10 °C min^−1 to 280 °C (held for 2 min). Data were analyzed using Thermo Xcalibur 2.2 software.
For another series, the system named is Candida maltosa CYP52A4. The arrangement: method as in PMID 8645001. The conditions noted are these: cited from earlier work.
In series [8] the test system is M. globosa. Briefly: Sterol analysis of azole-treated M. globosa. It is filed as cell-based, Malassezia globosa. The conditions noted are these: 4 μg ml^−1 ketaminazole. How it is done: Individual sterols were identified by reference to relative retention times, mass ions and fragmentation patterns. Sterol composition was calculated using peak areas.
Another series deals with H. sapiens CYP51. Set-up: method as in PMID 23826084. The conditions noted are these: cited from earlier work.
A further series concerns the target C. albicans CYP51. The arrangement: method as in PMID 23826084. The conditions noted are these: cited from earlier work.
The mark [9] stands for this setting: CYP5218 Kd (μM) Michaelis-Menten.

T1 sequence (A8Q3I7 whole entry L2A/Q3L/E4L/I5L/G6A/A7V/W8F): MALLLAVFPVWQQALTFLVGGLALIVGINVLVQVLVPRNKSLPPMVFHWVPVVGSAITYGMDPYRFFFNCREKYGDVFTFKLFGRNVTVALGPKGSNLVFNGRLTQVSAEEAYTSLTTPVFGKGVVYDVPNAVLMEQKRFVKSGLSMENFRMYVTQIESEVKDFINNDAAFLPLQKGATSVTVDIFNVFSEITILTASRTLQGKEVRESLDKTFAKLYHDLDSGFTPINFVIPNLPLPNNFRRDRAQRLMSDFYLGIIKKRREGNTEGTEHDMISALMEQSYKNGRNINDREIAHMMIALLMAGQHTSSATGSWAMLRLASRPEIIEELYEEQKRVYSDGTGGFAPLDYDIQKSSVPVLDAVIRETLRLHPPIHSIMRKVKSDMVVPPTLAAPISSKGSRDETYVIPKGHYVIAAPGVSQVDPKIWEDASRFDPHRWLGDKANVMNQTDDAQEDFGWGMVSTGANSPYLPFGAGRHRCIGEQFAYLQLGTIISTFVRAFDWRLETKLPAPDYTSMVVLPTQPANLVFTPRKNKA

Consider `C=CC[C@@H]1/C=C(\C)C[C@H](C)C[C@H](OC)[C@H]2O[C@@](O)(C(=O)C(=O)N3CCCC[C@H]3C(=O)O[C@H](/C(C)=C/[C@@H]3CC[C@@H](O)[C@H](OC)C3)[C@H](C)[C@@H](O)CC1=O)[C@H](C)C[C@@H]2OC` [FK-506], for which, in the series on M. globosa [1], the “concentration above which cytotoxic towards M. globosa” value was “above 0.0625 μg ml^−1”.
By IC50 is commonly meant the point on the concentration scale where inhibition reaches its midpoint. Lower therefore signals inhibition by little substance. In general, Kd refers to the constant that tells how readily two partners part at equilibrium. As to `OC(Cn1cncn1)(Cn1cncn1)c1ccc(F)cc1F` [fluconazole], at M. globosa CYP51 [2] (IC50, 0.5 μM CYP51, CYP51:AfCPR1 1:2, 50 μM lanosterol as substrate), the IC50 was 0.206 µM and 0.2 µM. The MIC in the series with M. globosa ATCC MYA-4612 (modified Dixon medium, 30 °C, 7 days) worked out at 64 µg/mL (≈ 209 µM). The “MIC values previously reported” value with M. globosa [3] was 4 µg/mL (≈ 13.1 µM). Further, the entries for the “azole binding to CYP5218 (binding spectra)” value at M. globosa CYP5218 [4] and on M. globosa CYP5218 [4] (listed as Fluconazole) were “did not bind” and “no reproducible binding spectra”, respectively. At M. globosa CYP51 [5], binding was put at a Kd of 0.011 ± 0.004 µM.
`CCCCCCCCCCCC(=O)O` [Lauric acid, lauric acid]: the Kd on M. globosa CYP5218 [6] (CYP5218 Kd (μM) Eadie-Hofstee) is 136 ± 3 µM; on M. globosa CYP5218 [6] (setting [9]), 136 ± 4 µM; in the series on Candida maltosa CYP52A4 it was about 110 µM. The “product formation in CYP5218 reconstitution assay” value on M. globosa CYP5218 [7] was “no observed product formation”.
Regarding `CC(=O)N1CCN(c2ccc(NCC3COC(Cn4ccnc4)(c4ccc(Cl)cc4Cl)O3)cc2)CC1` (centres unmarked) [ketaminazole], in the series on M. globosa [8], the “sterol fraction (%) 4,4-dimethylzymosterol” value is 0.62%, the “sterol fraction (%) Eburicol” value was determined as 14.63%, the “sterol fraction (%) Episterol” value was 0.63% and the “sterol fraction (%) Ergosta-5,7-dienol” value stood at 13.85%. In the series with M. globosa [8], the “sterol fraction (%) Ergosta-7-enol” value was 5.00%, the “sterol fraction (%) Ergosta-8,22-dienol” value came to 5.35%, the “sterol fraction (%) Ergosta-8-enol” value was determined as 0% and the “sterol fraction (%) Ergosterol” value turned out to be 54.64%. Also, in the series on M. globosa [8], the “sterol fraction (%) Fecosterol” value is given as 0.54% and the “sterol fraction (%) Obtusifoliol” value turned out to be 3.52%. Moreover, in the series on M. globosa [8] (cholesterol assimilated from growth media), the “sterol fraction (%) Cholesterol” value turned out to be 1.21%. Moreover, the IC50 against M. globosa CYP51 [2] (0.5 μM CYP51, CYP51:AfCPR1 1:2, 50 μM lanosterol as substrate) amounted to 0.321 ± 0.042 µM. Further, the Kd at H. sapiens CYP51 was 0.731 µM. The growth inhibition result with M. globosa ATCC MYA-4612 (4 μg ml^−1) is “partial inhibition of growth”. Moreover, the MIC in the series on M. globosa ATCC MYA-4612 worked out at 8 µg/mL (≈ 15.1 µM). At M. globosa CYP5218 [4], the “azole binding to CYP5218 (binding spectra)” value was “type II binding spectra”. Also, the Kd on M. globosa CYP5218 [4] (azole titrated against 2 μM CYP5218) is ~12 µM and ~11.7 µM. At M. globosa CYP51 [5] (azole titrated against 2 μM CYP51, Morrison equation), this compound displayed a Kd of 0.003 ± 0.001 µM. At C. albicans CYP51, the Kd is 0.043 µM.
As to `CCCCCCCCCCCCCC(=O)O` [Myristic acid, myristic acid], the Kd at M. globosa CYP5218 [6] (CYP5218 Kd (μM) Eadie-Hofstee) is 245 ± 29 µM; on M. globosa CYP5218 [6] (setting [9]), 195 ± 41 µM; in the series with Candida maltosa CYP52A4 it was about 120 µM. Further, the “product formation in CYP5218 reconstitution assay” value at M. globosa CYP5218 [7] was “no observed product formation”.
In the case of `CC[C@@H]([C@H](C)O)n1ncn(-c2ccc(N3CCN(c4ccc(OC[C@@H]5CO[C@@](Cn6cncn6)(c6ccc(F)cc6F)C5)cc4)CC3)cc2)c1=O` [posaconazole], in the series on M. globosa [3], the “MIC values previously reported” value is 0.06 µg/mL (≈ 0.0856 µM).
